Consider 41 compounds from patent publication US9994552B2, “Compositions useful for treating disorders related to kit” (BLUEPRINT MEDICINES CORPORATION, priority 2013, dated 2018).

The structures appear in SMILES notation.

One experiment addresses wild type Kit (Homo sapiens (Human), UniProt P10721). In words: Kit wild type assay at Km (Caliper electrophoretic mobility shift). The experiment is classed as biochemical. As to conditions: wild type Kit 2 nM, 400 uM ATP (Km), 1 uM Srctide, 25 C, 90 minutes; read-out: INH-KITWT ENZ-KM IC50 (nM) (Num). In a few lines: (§1)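 Read-out is the ratio of phosphorylated to unphosphorylated fluorescent peptide, resolved by mobility shift on a Caliper EZ Reader 2.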

Another experiment deals with D816V Kit (Homo sapiens (Human), UniProt P10721, D816V). The experiment in a line: Kit D816V assay at Km (Caliper electrophoretic mobility shift). The experiment is classed as biochemical. Conditions: for IC50: D816V Kit 0.5 nM, 15 uM ATP (Km), 1 uM Srctide, 25 C, 90 minutes, read-out: INH-KITD816V ENZ-KM IC50 (nM) (Num); for times more potent against the D816V mutant than against the wild-type Kit: D816V Kit versus wild-type Kit, enzyme assays at Km. In a few lines: as §1
Sequence of D816V Kit (P10721 26-976 D816V): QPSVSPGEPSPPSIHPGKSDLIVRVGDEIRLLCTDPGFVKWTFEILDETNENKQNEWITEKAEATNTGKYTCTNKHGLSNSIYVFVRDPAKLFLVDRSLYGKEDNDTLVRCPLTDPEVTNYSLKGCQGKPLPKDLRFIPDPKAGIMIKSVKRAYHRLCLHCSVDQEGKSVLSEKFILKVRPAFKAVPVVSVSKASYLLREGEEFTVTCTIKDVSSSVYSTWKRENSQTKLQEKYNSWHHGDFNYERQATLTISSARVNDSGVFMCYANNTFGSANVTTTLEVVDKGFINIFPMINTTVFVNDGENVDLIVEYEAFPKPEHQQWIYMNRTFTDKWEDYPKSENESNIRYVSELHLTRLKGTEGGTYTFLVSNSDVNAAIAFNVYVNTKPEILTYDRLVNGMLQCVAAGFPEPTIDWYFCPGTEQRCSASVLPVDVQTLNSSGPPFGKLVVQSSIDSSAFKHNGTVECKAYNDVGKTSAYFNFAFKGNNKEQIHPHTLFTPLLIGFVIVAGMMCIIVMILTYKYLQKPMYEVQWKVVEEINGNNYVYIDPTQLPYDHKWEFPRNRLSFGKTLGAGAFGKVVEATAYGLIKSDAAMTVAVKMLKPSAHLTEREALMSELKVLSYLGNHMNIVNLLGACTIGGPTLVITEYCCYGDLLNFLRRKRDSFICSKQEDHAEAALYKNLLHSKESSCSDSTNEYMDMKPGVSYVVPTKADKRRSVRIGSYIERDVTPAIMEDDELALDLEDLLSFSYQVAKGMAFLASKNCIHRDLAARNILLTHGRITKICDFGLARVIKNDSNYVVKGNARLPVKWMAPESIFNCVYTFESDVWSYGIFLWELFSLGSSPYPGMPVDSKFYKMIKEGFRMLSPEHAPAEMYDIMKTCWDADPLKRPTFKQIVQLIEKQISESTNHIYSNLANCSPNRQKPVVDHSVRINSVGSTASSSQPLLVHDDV

The next experiment has as its system HMC1.2 cells. In words: HMC1.2 Proliferation Assay (CellTiter-Glo). As to conditions: 72 h, read-out: HMC1.2 Proliferation IC50. (Cellular ATP, detected with luciferase, serves as a proxy for viable cell number.)
The target of experiment [1] is Kit D816V kinase activity (Kit autophosphorylation at tyrosine 719) (Homo sapiens (Human), UniProt P10721, D816V/V560G). In words: HMC1.2 Autophosphorylation Assay (AlphaLISA phospho-Y719 c-Kit). On the technique in general: Bead proximity is the source of the signal in Alpha formats.
Sequence of Kit D816V kinase activity (Kit autophosphorylation at tyrosine 719) (P10721 26-976 V560G/D816V): as the sequence (P10721 26-976 D816V) above, with V535G counted along it
Description: 10,000 HMC1.2 cells were incubated in 22 ul culture media (phenol-red free IMDM, no serum) in each well of a 384-well plate and serum starved overnight in a tissue culture incubator (5% CO2, 37° C.). […] After 90 minutes, 6 ul of 5× AlphaLISA Lysis Buffer (Perkin Elmer) supplemented with a protease and phosphatase inhibitor cocktail (Cell Signaling Technologies) was added to each well and shaken at 450 rpm for 15 minutes at 4° C. […] 10 ul of 100 ug/ml streptavidin donor beads (Perkin Elmer) were added to each well, blocked from light with aluminum adhesive and shaken at 300 rpm at room temperature for 2 hours. Fluorescence signal was obtained on Envision (Perkin Elmer) by AlphaScreen 384 well HTS protocol.

Sequence of wild type Kit (P10721 26-976): as the sequence (P10721 26-976 D816V) above, with V791D counted along it
Description for HMC1.2 cells: 1000 HMC1.2 cells were incubated in 22 ul culture media (IMDM, 10% calf serum with Iron) in each well of a 384-well plate overnight in a tissue culture incubator (5% CO2, 37° C.). […] After 3 days incubation in tissue culture incubator, 25 ul CellTiter-Glo (Promega) solution was added to each well for ATP/cell viability measurement.
In addition, these compounds were assayed for their ability to inhibit the dependence of these cells on Kit kinase activity by disrupting their growth and proliferation.

Regarding `COc1cc2ncnc(N3CCN(c4ncc(Cc5ccccc5)cn4)CC3)c2cc1OCC1CCN(C)CC1` [Compound 112], the IC50 on wild type Kit was 11 to 100 nM; on D816V Kit, below 1 nM; in the experiment on HMC1.2 cells, 1000 to 10000 nM; in experiment [1], 10 to 100 nM.

On to `COc1cc2ncnc(N3CCN(c4ncc(Cc5ccccc5)cn4)CC3)c2cc1OCC1CNCCO1` (centres unmarked) [Compound 105], for which the IC50 is 11 to 100 nM at wild type Kit, below 1 nM on D816V Kit, 100 to 1000 nM in the experiment with HMC1.2 cells and 10 to 100 nM in experiment [1].

Take `COc1ccc2ncnc(N3CCN(c4ncc(Cc5ccccc5)cn4)CC3)c2c1` [Compound 5]: the IC50 on wild type Kit was 100 to 1000 nM; on D816V Kit, 10 to 100 nM; in the experiment on HMC1.2 cells it was 1000 to 10000 nM.

As to `COc1ccc2ncnc(N3CCN(c4ncc(Cc5ccccc5)cn4)[C@H](C)C3)c2c1` [Compound 7], the IC50 at wild type Kit is 100 to 1000 nM; on D816V Kit it was 10 to 100 nM; in the experiment with HMC1.2 cells, 1000 to 10000 nM.

With `c1ccc(Cc2cnc(N3CCN(c4ncnc5[nH]cnc45)CC3)nc2)cc1` [Compound 1], the IC50 was above 1000 nM on wild type Kit, 10 to 100 nM at D816V Kit, 1000 to 10000 nM in the experiment with HMC1.2 cells and above 10000 nM in experiment [1]. Moreover, the “times more potent against the D816V mutant than against the wild-type Kit” value (“times more potent” below) at D816V Kit is on record as “at least 100 times”.

Consider `COc1cc2ncnc(N3CCN(c4ncc(Cc5ccccc5)cn4)CC3)c2cc1OCCCN1CCN(C)CC1` [Compound 136], for which the IC50 is 11 to 100 nM at wild type Kit, below 1 nM at D816V Kit, 1000 to 10000 nM in the experiment on HMC1.2 cells and 100 to 1000 nM in experiment [1].

Take `COc1cc2ncnc(N3CCN(c4ncc(Cc5ccccc5)cn4)CC3)c2cc1OCC(O)CO` (centres unmarked) [Compound 84]: the IC50 on wild type Kit was in the range of 11 to 100 nM; on D816V Kit it was 1.01 to 10 nM; in the experiment with HMC1.2 cells it was 1000 to 10000 nM; in experiment [1], 100 to 1000 nM.

In the case of `COc1cc2ncnc(N3CCN(c4ncc(Cc5ccccc5)cn4)CC3)c2cc1OCC1CCNC(=O)C1` (centres unmarked) [Compound 109], the IC50 on wild type Kit was 11 to 100 nM; on D816V Kit, below 1 nM; with HMC1.2 cells, 1000 to 10000 nM; in experiment [1], 10 to 100 nM.

Take `COc1cc2ncnc(N3CCN(c4ncc(Cc5ccccc5)cn4)CC3)c2cc1OCC1CCNCC1` [Compound 98]: the IC50 at wild type Kit was 11 to 100 nM; at D816V Kit it was below 1 nM; with HMC1.2 cells, 1000 to 10000 nM; in experiment [1] it was 10 to 100 nM.

In the case of `COc1cc2c(N3CCN(c4ncc(Cc5ccccc5)cn4)CC3)ncnc2cc1OCCN1CCCC1=O` [Compound 111], the IC50 on wild type Kit was 11 to 100 nM; on D816V Kit, below 1 nM; in the experiment on HMC1.2 cells it was 1000 to 10000 nM; in experiment [1], 100 to 1000 nM.

Take `COc1cc2ncnc(N3CCN(c4ncc(Cc5ccccc5)cn4)CC3)c2cc1OC1CCN(C)CC1` [Compound 99]: the IC50 on wild type Kit lay in the range of 11 to 100 nM; on D816V Kit, 1.01 to 10 nM; with HMC1.2 cells, 1000 to 10000 nM; in experiment [1], 100 to 1000 nM.

Turning to `COc1cc2ncnc(N3CCN(c4ncc(Cc5ccccc5)c(O)n4)CC3)c2cc1OC` [Compound 35], the IC50 is below 10 nM on wild type Kit, below 1 nM at D816V Kit, 100 to 1000 nM in the experiment on HMC1.2 cells and 100 to 1000 nM in experiment [1].

On to `COc1cc2ncnc(N3CCN(c4ncc(Nc5ccccc5)cn4)CC3)c2cc1OC` [Compound 13, 2-(4-(6,7-dimethoxyquinazolin-4-yl)piperazin-1-yl)-N-phenylpyrimidin-5-amine], for which the IC50 was in the range of 100 to 1000 nM on wild type Kit, 1.01 to 10 nM at D816V Kit, 1000 to 10000 nM in the experiment on HMC1.2 cells and 100 to 1000 nM in experiment [1].

As to `COc1cc2c(N3CCN(c4ncc(Cc5ccccc5)cn4)CC3)ncnc2cc1OCCCN1CCN(C)CC1` [Compound 134], the IC50 was below 10 nM on wild type Kit, below 1 nM at D816V Kit, 100 to 1000 nM with HMC1.2 cells and 10 to 100 nM in experiment [1].

Turning to `COc1cc2ncnc(N3CCN(c4ncc(Cc5ccc(C)cc5)cn4)C(=O)C3)c2cc1OC` [Compound 22], the IC50 fell in the range of 11 to 100 nM at wild type Kit, 1.01 to 10 nM on D816V Kit and 1000 to 10000 nM in the experiment on HMC1.2 cells.

On to `COc1cc2c(N3CCN(c4ncc(Br)cn4)CC3)ncnc2cc1OCCCN1CCCC1` [Compound 107], for which the IC50 fell in the range of 100 to 1000 nM on wild type Kit, 10 to 100 nM on D816V Kit and 1000 to 10000 nM in the experiment on HMC1.2 cells.

On to `COc1cc2ncnc(N3CCN(c4ncc(Cc5ccc(C(F)(F)F)cc5)cn4)CC3)c2cc1OC` [Compound 88], for which the results for the IC50 at wild type Kit, on D816V Kit and in the experiment on HMC1.2 cells were 100 to 1000 nM, 10 to 100 nM and above 10000 nM, respectively.

Consider `COc1cc2ncnc(N3CCN(c4ncc(Nc5ccccc5)cn4)[C@H](C)C3)c2cc1OC` [Compound 30], for which the IC50 at wild type Kit is 100 to 1000 nM; at D816V Kit, 1.01 to 10 nM; with HMC1.2 cells it was 1000 to 10000 nM.

Take `COc1cc2ncnc(N3CCN(c4ncc(-c5ccc(C#N)cc5)cn4)CC3)c2cc1OC` [Compound 19]: the results for the IC50 on wild type Kit and at D816V Kit were above 1000 nM and above 100 nM, respectively. Moreover, the “times more potent” value at D816V Kit is reported as “less than 5 times”.

For `COc1cc2ncnc(N3CCN(c4ncc(Nc5ccc(C)cc5)cn4)CC3)c2cc1OC` [Compound 31], the IC50 was in the range of 100 to 1000 nM on wild type Kit and 1.01 to 10 nM at D816V Kit.

For the compound `CN1CCC(COc2ccc3ncnc(N4CCN(c5ncc(Cc6ccccc6)c(=O)[nH]5)CC4)c3c2)CC1` [Compound 100], the values for the IC50 on wild type Kit and at D816V Kit were 100 to 1000 nM and 1.01 to 10 nM, respectively.

`COc1cc2ncnc(N3CCN(c4ncc(NCc5ccc(C)cc5)cn4)CC3)c2cc1OC` [Compound 53]: the IC50 at wild type Kit lay within 100 to 1000 nM; at D816V Kit, 10 to 100 nM.

On to `COc1cc2ncnc(N3CCN(c4ncc(NCc5ccccc5)cn4)CC3)c2cc1OC` [Compound 34, N-benzyl-2-(4-(6,7-dimethoxyquinazolin-4-yl)piperazin-1-yl)pyrimidin-5-amine], for which the IC50 on wild type Kit was in the range of 100 to 1000 nM; at D816V Kit, 10 to 100 nM.

As for `COc1cc2ncnc(N3CCN(c4ncc(Cc5ccccc5)cn4)CC3)c2cc1OC[C@@H]1CCCN(C)C1` [Compound 113], the results for the IC50 at wild type Kit and on D816V Kit were 11 to 100 nM and below 1 nM, respectively.

`CCOc1cc2ncnc(N3CCN(c4ncc(Cc5ccccc5)c(N)n4)CC3)c2cc1OCC1CCN(C)CC1` [Compound 135]: the IC50 at wild type Kit was below 10 nM; at D816V Kit, below 1 nM.

Take `COc1cc2ncnc(N3CCN(c4ncc(Nc5ccc(F)cc5)cn4)CC3)c2cc1OC` [Compound 42]: the IC50 on wild type Kit is 100 to 1000 nM; on D816V Kit it was 1.01 to 10 nM; in the experiment on HMC1.2 cells, 1000 to 10000 nM.

As to `COc1cc2ncnc(N3CCN(c4ncc(Nc5ccc(C(C)(C)C)cc5)cn4)CC3)c2cc1OC` [Compound 82], the IC50 at wild type Kit was above 1000 nM; at D816V Kit, above 100 nM.

Consider `COc1cccc(Cc2cnc(N3CCN(c4ncnc5cc(OC)c(OC)cc45)CC3)nc2)c1` [Compound 57], for which the IC50 on wild type Kit was in the range of 11 to 100 nM. On D816V Kit, the IC50 was below 1 nM and the “times more potent” value was “at least 100 times”.

Take `COc1cc2ncnc(N3CCN(c4ncc(Cc5ccccc5)cn4)CC3)c2cc1OC1CCN(C)C1` (centres unmarked) [Compound 92]: the results for the IC50 on wild type Kit and at D816V Kit were 100 to 1000 nM and 1.01 to 10 nM, respectively.

Turning to `COc1cc2ncnc(N3CCN(c4ncc(C(=O)Nc5ccccc5)cn4)CC3)c2cc1OC` [Compound 51], the values for the IC50 on wild type Kit and on D816V Kit were above 1000 nM and 10 to 100 nM, respectively.

As for `COc1cc2ncnc(N3CCN(c4ncc(Cc5ccccc5)cn4)C[C@@H]3C)c2cc1OC` [Compound 27], the IC50 at wild type Kit was above 1000 nM; on D816V Kit it was above 100 nM.

Consider `COc1cc2ncnc(N3CCN(c4ncc(Cc5ccccc5)c(=O)[nH]4)CC3)c2cc1OC[C@@H]1CCCN(C)C1` [Compound 128], for which the IC50 at wild type Kit lay within 11 to 100 nM; at D816V Kit, 1.01 to 10 nM.

Consider `COc1cc2ncnc(N3CCN(c4ncc(Oc5ccccc5)cn4)CC3)c2cc1OC` [Compound 14, 6,7-dimethoxy-4-(4-(5-phenoxypyrimidin-2-yl)piperazin-1-yl)quinazoline], for which the IC50 on wild type Kit fell in the range of 11 to 100 nM; at D816V Kit it was 1.01 to 10 nM.

Take `COc1cc2ncnc(N3CCN(c4ncc(Nc5cccc(C)c5)cn4)CC3)c2cc1OC` [Compound 33]: the results for the IC50 at wild type Kit and on D816V Kit were 100 to 1000 nM and 10 to 100 nM, respectively.

`COc1cc2ncnc(N3CCN(c4ncc(Cc5ccccc5)cn4)CC3)c2cc1OCC1CCN(C)C1` (centres unmarked) [Compound 96]: the IC50 on wild type Kit is 11 to 100 nM; on D816V Kit it was below 1 nM.

Take `COc1cc2ncnc(N3CCN(c4ncc(N5CCc6ccccc65)cn4)CC3)c2cc1OC` [Compound 49]: the IC50 was 100 to 1000 nM at wild type Kit and 10 to 100 nM on D816V Kit.

For `COc1cc2ncnc(N3CCN(c4ncc(Oc5ccc(F)cc5)cn4)CC3)c2cc1OCC1CCN(C)CC1` [Compound 133], the IC50 at wild type Kit is 11 to 100 nM; at D816V Kit it was 1.01 to 10 nM.

Turning to `COc1cc2ncnc(N3CCN(c4ncc(N(C)Cc5ccccc5)cn4)CC3)c2cc1OC` [Compound 52], the figures for the IC50 at wild type Kit and on D816V Kit were 11 to 100 nM and 1.01 to 10 nM, respectively.

Turning to `COc1cc2ncnc(N3CCN(c4nccc(Cc5ccccc5)n4)CC3)c2cc1OC` [Compound 12], the IC50 on wild type Kit was above 1000 nM; on D816V Kit, above 100 nM.

Turning to `COc1cc2ncnc(N3CCN(c4ncc(NCc5ccccc5C)cn4)CC3)c2cc1OC` [Compound 54], the IC50 at wild type Kit was in the range of 100 to 1000 nM; on D816V Kit, 10 to 100 nM.

On to `COc1cc2ncnc(N3CCN(c4ncc(Cc5ccccc5)cn4)CC3)c2cc1OC[C@H]1CCCN(C)C1` [Compound 115], for which the IC50 was in the range of 11 to 100 nM at wild type Kit and 1.01 to 10 nM on D816V Kit.
